The record followed here is ChEMBL document CHEMBL3872207, “Aromatic heterocyclic esters of podophyllotoxin exert anti-MDR activity in human leukemia K562/ADR cells via ROS/MAPK signaling pathways” (Eur J Med Chem, 2016).

Each structure is given as a SMILES string.

In experiment [1] the test system is K562/Adr. Briefly: Induction of ERK1/2 phosphorylation in human K562/ADR cells assessed as ratio of phosphorylated ERK1/2 to beta-actin level at 0.1 uM measured after 48 hrs by Western blotting (reference value: 0.22). Type of experiment: cell-based. A general note: In western blotting, separated proteins are transferred to a membrane and probed.
A short description of experiment [2]: Downregulation of CDK2 expression in human K562/ADR cells assessed as ratio of CDK2 to beta-actin level at 0.1 uM pretreated with MAPK inhibitor U0126 for 1 hr followed by compound addition measured after 48 hrs by Western blot analysis (reference value: 0.65). Type of experiment: functional, cell-based.
The nature of experiment [3]: Downregulation of CDK2 expression in human K562/ADR cells assessed as ratio of CDK2 to beta-actin level at 0.1 uM pretreated with ROS scavenger NAC for 2 hrs followed by compound addition measured after 48 hrs by Western blot analysis (reference value: 0.65). The class given is functional, cell-based.
Experiment [4] relates to K562/Adr. The experiment can be described thus: Induction of apoptosis in human K562/ADR cells assessed as late apoptotic cells at 0.1 uM pretreated with MAPK inhibitor SP600125 for 1 hr followed by compound addition after 48 hrs by Annexin V-APC/7-AAD staining based flow cytometry (reference value: 1.69%). The class given is functional. More on the design: scale not given: the % may be the effect or the level left. A general note: In flow cytometry, cells or beads pass a laser one at a time.

Experiment [5] has as its target MAP kinase p38 (Homo sapiens) (UniProt O15264+Q15759+Q16539+P53778). The experiment can be described thus: Induction of P38 phosphorylation in human K562/ADR cells assessed as ratio of phosphorylated p38 to beta-actin level at 0.1 uM pretreated with ROS scavenger NAC for 2 hrs followed by compound addition after 48 hrs by Western blotting method (reference value: 0.25). The class given is cell-based.

A short description of experiment [6]: Downregulation of CyclinB1 expression in human K562/ADR cells assessed as ratio of CyclinB1 to beta-actin level at 0.1 uM pretreated with ROS scavenger NAC for 2 hrs followed by compound addition measured after 48 hrs by Western blot analysis (reference value: 0.77). The class given is functional, cell-based.
Experiment [7] deals with K562/Adr. The experiment can be described thus: Induction of apoptosis in human K562/ADR cells assessed as ratio of cleaved PARP to beta-actin level at 0.1 uM pretreated with MAPK inhibitor SP600125 for 1 hr followed by compound addition measured after 48 hrs by Western blot analysis (reference value: 0.04). The class given is functional.
Experiment [8] deals with K562/Adr. The experiment can be described thus: Induction of ERK1/2 phosphorylation in human K562/ADR cells assessed as ratio of phosphorylated ERK1/2 to beta-actin level at 0.1 uM pretreated with ROS scavenger NAC for 2 hrs followed by compound addition after 48 hrs by Western blotting method (reference value: 0.22). Type of experiment: cell-based.
Experiment [9] addresses T1, c-Jun N-terminal kinase, JNK (Homo sapiens) (UniProt P45983+P53779+P45984). The experiment can be described thus: Induction of JNK phosphorylation in human K562/ADR cells assessed as ratio of phosphorylated JNK to beta-actin level at 0.1 uM pretreated with MAPK inhibitor SB203580 for 1 hr followed by compound addition after 48 hrs by Western blotting method (reference value: 0.46). The class given is cell-based.

In experiment [10] the test system is K562/Adr. Briefly: Induction of apoptosis in human K562/ADR cells assessed as ratio of cleaved caspase-9 to beta-actin level at 0.1 uM pretreated with MAPK inhibitor SB203580 for 1 hr followed by compound addition measured after 48 hrs by Western blot analysis (reference value: 0.05). Type of experiment: functional.
Experiment [11] concerns K562/Adr. Briefly: Induction of apoptosis in human K562/ADR cells assessed as early apoptotic cells at 0.1 uM pretreated with MAPK inhibitor SP600125 for 1 hr followed by compound addition after 48 hrs by Annexin V-APC/7-AAD staining based flow cytometry (reference value: 2.74%). The class given is functional. On the set-up: scale not given: the % may be the effect or the level left.

For experiment [12], the system named is K562/Adr. Briefly: Induction of apoptosis in human K562/ADR cells assessed as ratio of cleaved PARP to beta-actin level at 0.1 uM pretreated with MAPK inhibitor SB203580 for 1 hr followed by compound addition measured after 48 hrs by Western blot analysis (reference value: 0.04). The class given is functional.
A short description of experiment [13]: Potency index, ratio of etoposide IC50 to compound IC50 for antiproliferative activity against human K562/ADR cells. Type of experiment: functional.
In experiment [14] the test system is K562/Adr. Briefly: Induction of apoptosis in human K562/ADR cells assessed as viable cells at 0.1 uM pretreated with MAPK inhibitor SB203580 for 1 hr followed by compound addition after 48 hrs by Annexin V-APC/7-AAD staining based flow cytometry (reference value: 95.31%). The class given is functional. The settings on record: read-out: Activity.
Experiment [15] concerns K562/Adr. Briefly: Induction of apoptosis in human K562/ADR cells assessed as early apoptotic cells at 0.1 uM pretreated with ROS scavenger NAC for 2 hrs followed by compound addition after 48 hrs by Annexin V-APC/7-AAD staining based flow cytometry (reference value: 2.74%). The class given is functional.
Experiment [16] can be described thus: Downregulation of CDK1 expression in human K562/ADR cells assessed as ratio of CDK1 to beta-actin level at 0.1 uM pretreated with ROS scavenger NAC for 2 hrs followed by compound addition measured after 48 hrs by Western blot analysis (reference value: 0.53). The class given is functional, cell-based.
Experiment [17] in a line: Downregulation of P-gp expression in human K562/ADR cells assessed as ratio of P-gp to beta-actin level at 0.1 uM pretreated with ROS scavenger NAC for 2 hrs followed by compound addition measured after 48 hrs by Western blot analysis (reference value: 0.63). The class given is functional, cell-based.
For experiment [18], the target named is T1, c-Jun N-terminal kinase, JNK (Homo sapiens). Briefly: Induction of JNK phosphorylation in human K562/ADR cells assessed as ratio of phosphorylated JNK to beta-actin level at 0.1 uM pretreated with ROS scavenger NAC for 2 hrs followed by compound addition after 48 hrs by Western blotting method (reference value: 0.46). The class given is cell-based.
The nature of experiment [19]: Downregulation of CyclinB1 expression in human K562/ADR cells assessed as ratio of CyclinB1 to beta-actin level at 0.1 uM pretreated with MAPK inhibitor SB203580 for 1 hr followed by compound addition measured after 48 hrs by Western blot analysis (reference value: 0.77). The class given is functional, cell-based.
Experiment [20] in a line: Downregulation of CyclinA expression in human K562/ADR cells assessed as ratio of CyclinA to beta-actin level at 0.1 uM pretreated with MAPK inhibitor SP600125 for 1 hr followed by compound addition measured after 48 hrs by Western blot analysis (reference value: 0.64). Type of experiment: functional, cell-based.
For experiment [21], the system named is K562/Adr. Briefly: Induction of apoptosis in human K562/ADR cells assessed as viable cells at 0.1 uM pretreated with MAPK inhibitor SP600125 for 1 hr followed by compound addition after 48 hrs by Annexin V-APC/7-AAD staining based flow cytometry (reference value: 95.31%). The following applies: read-out: Activity. Type of experiment: functional.
Experiment [22] has as its system K562/Adr. The experiment can be described thus: Induction of apoptosis in human K562/ADR cells assessed as ratio of cleaved PARP to beta-actin level at 0.1 uM measured after 48 hrs by Western blot analysis (reference value: 0.04). Type of experiment: functional.
Experiment [23] concerns K562/Adr. Briefly: Induction of apoptosis in human K562/ADR cells assessed as ratio of cleaved caspase-8 to beta-actin level at 0.1 uM pretreated with MAPK inhibitor SB203580 for 1 hr followed by compound addition measured after 48 hrs by Western blot analysis (reference value: 0.07). The class given is functional.
The nature of experiment [24]: Downregulation of CyclinA expression in human K562/ADR cells assessed as ratio of CyclinA to beta-actin level at 0.1 uM pretreated with MAPK inhibitor U0126 for 1 hr followed by compound addition measured after 48 hrs by Western blot analysis (reference value: 0.64). Type of experiment: functional, cell-based.

Turning to `COc1cc([C@@H]2c3cc4c(cc3[C@H](OC(=O)c3ccco3)[C@H]3COC(=O)[C@H]23)OCO4)cc(OC)c1OC`, the Ratio amounted to 0.33 in the experiment on K562/Adr [1]; 0.26 in [2]; 0.43 in experiment [3]; 0.29 in experiment [5]; 0.66 in [6]; 0.53 in the experiment on K562/Adr [7]. The Ratio with K562/Adr [8] was found to be 0.22; in experiment [9] it was 0.3; in the experiment with K562/Adr [10], 0.44; in the experiment on K562/Adr [12], 0.48; in experiment [16], 0.49; in experiment [17], 0.66. Also, the Ratio in experiment [18] stood at 0.51; in experiment [19] it was 0.26; in experiment [20] it was 0.31; with K562/Adr [22], 0.84; with K562/Adr [23], 0.51; in [24] it was 0.41. In addition, the Activity is 30.33% in the experiment on K562/Adr [4], 7.8% in the experiment on K562/Adr [11] and 8.06% with K562/Adr [15]. Besides, in experiment [13], the “Ratio IC50” value is given as 69.093. The viability at 0.1 µM with K562/Adr [14] is 59.4%; with K562/Adr [21], 58.5%.
